Measured values taken from publication PMC7072648, “N-(2-Hydroxyphenyl)-1-[3-(2-oxo-2,3-dihydro-1H- benzimidazol-1-yl)propyl]piperidine-4-Carboxamide (D2AAK4), a Multi-Target Ligand of Aminergic GPCRs, as a Potential Antipsychotic” (Biomolecules, 2020).
Values joined by “and” are separate entries in the source; they are usually repeats but may differ in a detail not shown here. Equal values may be shown once.

Key:
human 5-HT2A receptor [1] = molecular target: T1, human 5-HT2A receptor (Homo sapiens, UniProt P28223); test: Functional assay of inositol phosphate (IP) production at 5-HT2A receptors (CHO-K1 cells); assay type: cell-based
T1 construct: expressed in transfected cells
T1 sequence (P28223 whole entry): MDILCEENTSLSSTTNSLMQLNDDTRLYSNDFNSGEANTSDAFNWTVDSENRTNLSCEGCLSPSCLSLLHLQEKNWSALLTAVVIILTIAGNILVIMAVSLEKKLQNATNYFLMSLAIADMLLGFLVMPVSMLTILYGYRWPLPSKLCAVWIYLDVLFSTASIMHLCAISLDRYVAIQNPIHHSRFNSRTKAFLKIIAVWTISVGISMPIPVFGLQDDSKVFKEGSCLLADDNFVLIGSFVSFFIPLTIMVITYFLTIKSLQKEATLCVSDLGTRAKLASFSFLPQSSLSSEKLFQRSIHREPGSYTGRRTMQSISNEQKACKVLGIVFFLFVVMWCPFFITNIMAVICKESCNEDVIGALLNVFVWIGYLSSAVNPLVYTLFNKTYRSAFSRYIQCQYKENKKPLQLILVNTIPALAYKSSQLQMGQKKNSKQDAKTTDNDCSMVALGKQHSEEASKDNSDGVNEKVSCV

human D2S receptor [2] = molecular target: T2, human D2S receptor (Homo sapiens, UniProt P14416); settings: 10 µM compound versus 10 µM dopamine, cAMP assay; cited from earlier work
T2 construct: expressed in transfected cells
T2 sequence (P14416 1-414 isoform P14416-2): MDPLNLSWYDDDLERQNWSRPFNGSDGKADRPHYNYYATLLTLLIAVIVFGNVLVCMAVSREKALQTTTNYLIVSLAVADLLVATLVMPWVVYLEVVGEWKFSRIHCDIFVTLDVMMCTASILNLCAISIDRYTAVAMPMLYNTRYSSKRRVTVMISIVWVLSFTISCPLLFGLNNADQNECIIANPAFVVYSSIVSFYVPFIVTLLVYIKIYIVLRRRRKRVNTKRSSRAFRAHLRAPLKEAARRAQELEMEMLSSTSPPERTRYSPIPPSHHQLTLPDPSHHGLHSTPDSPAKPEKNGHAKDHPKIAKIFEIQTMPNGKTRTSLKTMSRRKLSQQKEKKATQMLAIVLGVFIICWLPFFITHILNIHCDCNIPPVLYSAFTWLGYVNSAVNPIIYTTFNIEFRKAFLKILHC

mice [3] = test: Passive avoidance (PA) task, memory consolidation; assay type: in vivo; settings: 100 mg/kg i.p. immediately after pretest, retest 24 h later; p < 0.0001 vs vehicle
Procedure: The PA apparatus was described previously. The PA procedure was also previously described.
Mice received D2AAK4 immediately after being pretested on Day 1, and then they were retested (without injections) 24 h later. The changes in PA performance were calculated as the difference between retention and training latencies (i.e., latency index (IL)). More specifically, IL was calculated for each animal and presented as the ratio (as described in [12, 29]).

human D2S receptor [4] = molecular target: T2, human D2S receptor; test: Functional assay of cAMP signaling at D2 receptors (CHO-K1 cells); assay type: cell-based
Procedure: Compound was initially assessed at 10 µM concentration either as agonist or as antagonist of 10 µM dopamine response. Dopamine (10 nM–1 mM) was used as reference agonist in these assays.

human 5-HT2A receptor [5] = molecular target: T1, human 5-HT2A receptor; test: Radioligand binding assay at human 5-HT2A receptor
Procedure: (§1) Radioligand binding assays were performed on cell membrane preparations from cell lines stably expressing the human cloned receptors. […] Experimental conditions for binding assays at D1, D2, D3, 5-HT1A and 5-HT2A receptors have been previously reported. 0.7 nM [^3H]-SCH23390, 2 nM [^3H]-SB269970 (5-HT7), 2 nM [^3H]-Pyrilamine (H1) and 2 nM [^3H]-Pirenzepine (M1) were employed as radioligands. […] Affinity (equilibrium dissociation constant (Ki) and pKi (−logKi)) values were calculated as previously reported. Affinity values of reference compounds that were assayed in parallel to D2AAK4 as internal controls in the binding assays are given in Supplementary Figure S1 (legend).

human H1 receptor = molecular target: T3, human H1 receptor (Homo sapiens, UniProt P35367); test: Radioligand binding assay at human H1 receptor; settings: mean ± SEM, two independent experiments in duplicate; read-out: pKi hH1 (converted)
T3 construct: expressed in transfected cells
T3 sequence (P35367 whole entry): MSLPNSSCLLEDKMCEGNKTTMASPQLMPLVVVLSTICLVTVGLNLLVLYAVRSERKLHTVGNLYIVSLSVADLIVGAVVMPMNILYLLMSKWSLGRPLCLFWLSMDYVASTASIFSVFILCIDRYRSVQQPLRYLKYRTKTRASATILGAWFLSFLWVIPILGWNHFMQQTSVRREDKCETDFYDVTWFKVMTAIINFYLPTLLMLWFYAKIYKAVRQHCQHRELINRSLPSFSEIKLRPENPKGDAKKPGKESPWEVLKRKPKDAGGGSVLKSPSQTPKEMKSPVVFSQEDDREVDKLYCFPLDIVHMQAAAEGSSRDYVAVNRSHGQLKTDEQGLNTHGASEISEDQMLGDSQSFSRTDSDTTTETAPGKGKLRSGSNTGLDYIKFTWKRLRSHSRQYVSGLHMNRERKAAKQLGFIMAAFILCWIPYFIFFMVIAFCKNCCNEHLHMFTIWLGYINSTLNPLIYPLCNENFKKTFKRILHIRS
Procedure: as §1

human 5-HT7(a) receptor = molecular target: T4, human 5-HT7(a) receptor (Homo sapiens, UniProt P34969); test: Radioligand binding assay at human 5-HT7 receptor; settings: mean ± SEM; full displacement not achieved at maximum concentration, pKi could be not accurately estimated; read-out: pKi h5-HT7 (converted)
T4 construct: expressed in transfected cells
T4 sequence (P34969 1-445 isoform P34969-2): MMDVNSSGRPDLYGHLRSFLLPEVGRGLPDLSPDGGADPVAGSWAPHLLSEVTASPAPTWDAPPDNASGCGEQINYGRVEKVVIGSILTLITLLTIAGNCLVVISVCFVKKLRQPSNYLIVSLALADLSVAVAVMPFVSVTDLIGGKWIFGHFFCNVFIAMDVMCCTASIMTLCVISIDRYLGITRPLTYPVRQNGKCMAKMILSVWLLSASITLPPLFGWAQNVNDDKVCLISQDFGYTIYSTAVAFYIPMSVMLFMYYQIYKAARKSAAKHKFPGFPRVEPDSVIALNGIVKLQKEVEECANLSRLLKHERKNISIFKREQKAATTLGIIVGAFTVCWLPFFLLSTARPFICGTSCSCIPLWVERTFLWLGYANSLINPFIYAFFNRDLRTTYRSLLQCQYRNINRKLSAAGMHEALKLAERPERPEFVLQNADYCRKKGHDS
Procedure: as §1

mice [6] = test: Elevated plus maze (EPM) test; assay type: in vivo; settings: 100 mg/kg i.p., 30 and 60 min after administration
Procedure: The EPM apparatus was used as described previously. The EPM procedure was described in our previous papers. The percentage (%) of time spent in the open arms and % of entries into the open arms were calculated. Moreover, the number of entries into the closed arms was recorded as the motor activity indicator of tested mice.
To determine D2AAK4 acute effect on anxiety-like behavior, the studied compound (100 mg/kg; i.p.) (n = 8) or vehicle (i.p.) (n = 8) was injected 30 and 60 min before the EPM test.

human D2S receptor [7] = molecular target: T2, human D2S receptor; test: Radioligand binding assay at human D2 receptor; settings: mean ± SEM, two independent experiments in duplicate; read-out: pKi hD2 (converted)
Procedure: Radioligand binding assays were performed on cell membrane preparations from cell lines stably expressing the human cloned receptors. Chinese hamster ovary K1 (CHO-K1) cell lines stably expressing human D2S, 5-HT2A or H1 receptors and human embryonic kidney 293 (HEK293) cell lines stably expressing human 5-HT1A or 5-HT7(a) receptors were in-house available, whereas CHO-K1 cell lines stably expressing human D1 or D3 receptors (Perkin Elmer, Waltham, MA, USA) and Chem-1 cell line stably expressing human M1 receptor (Millipore, Merck KGaA, Darmstadt, Germany) were commercially available. Experimental conditions for binding assays at D1, D2, D3, 5-HT1A and 5-HT2A receptors have been previously reported. 0.7 nM [^3H]-SCH23390, 2 nM [^3H]-SB269970 (5-HT7), 2 nM [^3H]-Pyrilamine (H1) and 2 nM [^3H]-Pirenzepine (M1) were employed as radioligands. […] Affinity (equilibrium dissociation constant (Ki) and pKi (−logKi)) values were calculated as previously reported. Affinity values of reference compounds that were assayed in parallel to D2AAK4 as internal controls in the binding assays are given in Supplementary Figure S1 (legend).

human M1 receptor = molecular target: T5, human M1 receptor (Homo sapiens, UniProt P11229); test: Radioligand binding assay at human M1 receptor; settings: mean ± SEM; full displacement not achieved at maximum concentration, pKi could be not accurately estimated; read-out: pKi hM1 (converted)
T5 sequence (P11229 1-460): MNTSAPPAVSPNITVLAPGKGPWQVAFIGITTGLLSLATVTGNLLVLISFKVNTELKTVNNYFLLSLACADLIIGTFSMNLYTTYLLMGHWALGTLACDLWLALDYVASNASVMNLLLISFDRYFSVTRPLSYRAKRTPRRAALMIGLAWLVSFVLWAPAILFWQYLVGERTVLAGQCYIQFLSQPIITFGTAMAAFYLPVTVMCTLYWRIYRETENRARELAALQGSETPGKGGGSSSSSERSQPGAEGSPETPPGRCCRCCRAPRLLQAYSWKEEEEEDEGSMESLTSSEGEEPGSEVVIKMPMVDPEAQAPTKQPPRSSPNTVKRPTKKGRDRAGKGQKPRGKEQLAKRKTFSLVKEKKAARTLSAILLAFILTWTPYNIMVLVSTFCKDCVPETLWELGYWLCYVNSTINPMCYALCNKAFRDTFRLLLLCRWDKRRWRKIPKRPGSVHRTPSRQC
Procedure: as §1

human D3 receptor = human D3 receptor (Homo sapiens, UniProt P35462); test: Radioligand binding assay at human D3 receptor; settings: mean ± SEM, two independent experiments in duplicate; read-out: pKi hD3 (converted)
Chain of human D3 receptor (P35462 whole entry): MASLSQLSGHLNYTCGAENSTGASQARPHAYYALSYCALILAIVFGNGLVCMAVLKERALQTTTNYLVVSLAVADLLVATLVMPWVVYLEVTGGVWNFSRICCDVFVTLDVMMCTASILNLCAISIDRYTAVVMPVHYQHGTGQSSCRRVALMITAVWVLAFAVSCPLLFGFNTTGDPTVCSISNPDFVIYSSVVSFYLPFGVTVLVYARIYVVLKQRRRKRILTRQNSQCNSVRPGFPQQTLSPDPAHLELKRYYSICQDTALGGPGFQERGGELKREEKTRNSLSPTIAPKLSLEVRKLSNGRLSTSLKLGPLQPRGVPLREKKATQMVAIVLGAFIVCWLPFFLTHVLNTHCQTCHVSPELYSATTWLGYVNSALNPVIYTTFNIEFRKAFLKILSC
Procedure: as §1

human D1 receptor = human D1 receptor (Homo sapiens, UniProt P21728); test: Radioligand binding assay at human D1 receptor; settings: mean ± SEM, two independent experiments in duplicate; read-out: pKi hD1 (converted)
Chain of human D1 receptor (P21728 whole entry): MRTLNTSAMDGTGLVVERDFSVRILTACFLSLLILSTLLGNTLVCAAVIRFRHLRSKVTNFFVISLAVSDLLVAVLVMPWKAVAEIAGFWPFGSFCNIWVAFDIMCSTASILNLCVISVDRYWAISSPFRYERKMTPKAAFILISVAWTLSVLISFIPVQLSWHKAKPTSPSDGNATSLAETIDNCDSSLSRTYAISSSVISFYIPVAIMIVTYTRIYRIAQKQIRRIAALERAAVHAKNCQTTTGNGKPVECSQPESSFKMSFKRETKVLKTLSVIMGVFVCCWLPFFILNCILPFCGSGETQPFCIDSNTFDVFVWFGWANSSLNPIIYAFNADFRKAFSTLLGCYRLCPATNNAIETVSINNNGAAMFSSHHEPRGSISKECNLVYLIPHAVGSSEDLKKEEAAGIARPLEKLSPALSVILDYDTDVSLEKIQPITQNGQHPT
Procedure: as §1

mice [8] = test: Amphetamine-induced hyperactivity; settings: 100 mg/kg i.p. coadministered with amphetamine 5 mg/kg s.c.; p < 0.001 vs amphetamine-treated group
mice [9] = test: Motor coordination, rotarod and chimney tests; assay type: in vivo; settings: 100 mg/kg i.p., 60 min after injection
Procedure: Motor coordination has been assessed in mice using the rotarod test and the chimney test using the same procedure as described in our earlier work. […] D2AAK1 was previously studied using the same dose so we decided to select the dose of 100 mg/kg.

human 5-HT1A receptor = molecular target: T6, human 5-HT1A receptor (Homo sapiens, UniProt P08908); test: Radioligand binding assay at human 5-HT1A receptor; settings: mean ± SEM, read-out: % inh. at 10 μM (5-HT1A)
T6 construct: expressed in transfected cells
T6 sequence (P08908 1-422): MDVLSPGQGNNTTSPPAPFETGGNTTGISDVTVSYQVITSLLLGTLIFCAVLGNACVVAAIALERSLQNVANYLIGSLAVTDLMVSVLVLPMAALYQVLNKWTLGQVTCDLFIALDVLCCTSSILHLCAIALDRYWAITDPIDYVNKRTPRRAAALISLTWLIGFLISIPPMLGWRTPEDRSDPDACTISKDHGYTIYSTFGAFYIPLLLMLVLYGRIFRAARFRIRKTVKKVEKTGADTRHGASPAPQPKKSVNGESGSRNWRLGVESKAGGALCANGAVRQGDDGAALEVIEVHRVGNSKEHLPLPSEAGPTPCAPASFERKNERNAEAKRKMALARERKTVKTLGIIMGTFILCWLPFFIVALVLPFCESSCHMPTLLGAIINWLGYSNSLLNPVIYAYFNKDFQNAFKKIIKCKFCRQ
Procedure: as §1

human 5-HT2A receptor [10] = molecular target: T1, human 5-HT2A receptor; settings: atypical antipsychotics, literature values, no reference given; cited from earlier work

O=C(Nc1ccccc1O)C1CCN(CCCn2c(=O)[nH]c3ccccc32)CC1 [D2AAK4, N-(2-hydroxyphenyl)-1-[3-(2-oxo-2,3-dihydro-1H-benzimidazol-1-yl)propyl]piperidine-4-carboxamide]
agonist efficacy at 5-HT2A (IP signaling) (human 5-HT2A receptor [1]; 0.1 nM to 100 µM): unable to promote IP signaling
inhibition at 10 µM (human 5-HT2A receptor [1]; CHO-K1, read-out: % inh. at 10 µM (inhibition of 5-HT response), h5-HT2A, 10 µM compound versus 1 µM 5-HT, IP assay): 97.4 ± 1.6%
IC50 (human 5-HT2A receptor [1]; versus 1 µM 5-HT-stimulated IP production, read-out: IC50, 5-HT2A antagonist): 0.714 µM
% inh. at 10 µM (inhibition of dopamine response), hD2 (human D2S receptor [2]): 12.1 ± 6.0% and 12%
latency index (IL) values, memory consolidation (mice [3]): statistically significant increase
% inh. at 100 µM (inhibition of dopamine response), hD2 (human D2S receptor [4]; 100 µM compound (maximal assayed) versus 10 µM dopamine, cAMP assay): 44%
inhibition at 100 µM (human D2S receptor [4]; CHO-K1, read-out: % inh. at 100 µM (inhibition of dopamine response), hD2, 100 µM compound (maximal assayed) versus 10 µM dopamine, cAMP assay): 44.1 ± 1.5%
5-HT2A/D2 affinity ratio (Ki D2/Ki 5-HT2A), times higher affinity for 5-HT2A (human 5-HT2A receptor [5]; 5-HT2A versus D2 receptor): 3.67 times
Ki (human 5-HT2A receptor [5]; mean ± SEM, three independent experiments in duplicate, read-out: pKi h5-HT2A (converted)): 0.49 µM
Ki (human H1 receptor): 3.89 µM
Ki (human 5-HT7(a) receptor): 6.61 µM
% of the time spent in the open arms (mice [6]; p < 0.0001): decrease
% of the open arm entries (mice [6]; p = 0.0272 and p = 0.0092): decrease
Ki (human D2S receptor [7]): 1.86 µM
Ki (human M1 receptor): 3.89 µM
Ki (human D3 receptor): 9.33 µM
Ki (human D1 receptor): 2.51 µM
amphetamine-induced hyperactivity (mice [8]): decreased amphetamine-induced hyperactivity
motor coordination in rotarod and chimney tests (mice [9]): does not impair mouse motor coordination
inhibition at 10 µM (human 5-HT1A receptor): 9.7 ± 0.4%

Cc1nc2n(c(=O)c1CCN1CCC(c3noc4cc(F)ccc34)CC1)CCCC2O (stereo not shown) [paliperidone]
5-HT2A/D2 affinity ratio (human 5-HT2A receptor [10]): 2.16

O=C1Cc2cc(CCN3CCN(c4nsc5ccccc45)CC3)c(Cl)cc2N1 [ziprasidone]
5-HT2A/D2 affinity ratio (human 5-HT2A receptor [10]): ~ 5.60
